This test addresses LtaPh_2202300 (AAT22) (Leishmania tarentolae, UniProt A0A640KGB0). Description: time-dependent uptake of 3H-glutamate, null mutant vs control strain. Format: cell-based. Particulars: 0.1 mM glutamate in PBS, room temperature; labelled compound.

LtaPh_2202300 (AAT22), sequence (A0A640KGB0 entry or part of it): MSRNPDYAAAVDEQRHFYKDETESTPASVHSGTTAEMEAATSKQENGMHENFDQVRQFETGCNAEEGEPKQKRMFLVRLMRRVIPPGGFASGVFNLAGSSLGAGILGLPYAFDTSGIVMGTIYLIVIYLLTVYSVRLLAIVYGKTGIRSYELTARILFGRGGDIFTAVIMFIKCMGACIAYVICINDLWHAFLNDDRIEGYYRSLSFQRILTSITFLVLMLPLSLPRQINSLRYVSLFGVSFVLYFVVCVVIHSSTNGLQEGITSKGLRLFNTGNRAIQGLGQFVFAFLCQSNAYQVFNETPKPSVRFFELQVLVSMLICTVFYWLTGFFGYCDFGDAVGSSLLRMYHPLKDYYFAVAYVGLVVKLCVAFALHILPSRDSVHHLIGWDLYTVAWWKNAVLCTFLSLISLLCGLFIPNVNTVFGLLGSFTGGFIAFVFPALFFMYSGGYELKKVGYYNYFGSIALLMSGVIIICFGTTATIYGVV

Take `N[C@@H](CCC(=O)O)C(=O)O` [glutamate]: the uptake result is recorded as “The accumulation of glutamate but not glutamine was greatly diminished in that recombinant strain”.

For the origin of these results see paper PMC8718007, “Decreased glutamate transport in acivicin resistant Leishmania tarentolae” (PLoS Neglected Tropical Diseases, 2021).
